“Also recorded” adds a separate entry of the source. Read-outs that look alike come from different tables or passages of the source.
Legend:
Assay type in all cases: physicochemical
[1] = Non-isothermal thermogravimetric analysis (TGA), onset of thermal degradation
Description: (§1) Materials and Methods: Cannabidiol (CBD) was purchased from EcoGen BioSciences and used as received. Cannabigerol (CBG) was purchased from Mile High Labs, Inc and used as received. All other chemicals were purchased from Sigma Aldrich and used without further purification unless otherwise noted. Unless otherwise indicated, ^1H NMR was collected using a Bruker AVANCE 500 MHz instrument. Thermo Gravimetric Analysis was conducted using a TA Instruments TGA Q-500 and DSC was collected using a TA Instruments DSC Q-20. GPC was taken using a WATERS GPC equipped with a 1515 HPLC Pump and Waters 717Plus Autoinjector. Ultra Performance Liquid Chromatograph tandem Mass Spectrometry (UPLC/MS/MS) was conducted using a Waters Acquity UPLC-TQD equipped with a PDA detector.
Thermogravimetric Analysis (TGA): Non-Isothermal degradation: Samples were heated in pre-tared platinum pans under nitrogen atmosphere to 700° C. at a heating rate of 10° C./minute.

[2] = Isothermal degradation by TGA in the presence of oxygen; conditions: 60 minutes
Description: as §1
Isothermal degradation: Samples were heated in pre-tared pans while in the presence of oxygen to either 150, 160, 180 or 220° C. at a heating rate of 10° C./minute. They were left at the high temperature for 60 minutes. The degradation rate was determined from the slope of the weight % vs Time plots.

[3] = Heat induced by-product analysis (open vials, 175° C., 30 minutes, convection oven; NMR, UPLC/MS/MS); conditions: for remaining residue after heating: 100 mg sample, open vial, convection oven; for remaining residue after heating / NMR analysis of the sample residues after heating / amount of by-product formation (LC/MS): 175° C., 30 minutes
Description: Heat induced by-product analysis experiment: Open vials containing 100 mg of CBD, CBD-Diacetate, and Poly(CBD) were heated at 175° C. for 30 minutes in a laboratory convection oven. After heating, the remaining residue was weighed at 89.64 mg, 91.35 mg, and 99.86 mg for each compound, respectively. Samples were then analyzed using ^1H NMR. […] Ultra performance liquid chromatograph tandem mass spectrometry (UPLC/MS/MS) was conducted to compare formed by-products against nine known cannabinoid standards.
Popular types of consumer cannabis products include tinctures, vaporizer liquids, and baked foods, while potential pharmaceutical products include oil extracts, solutions, and tablet. In each case, cannabinoids within the products are subjected to elevated temperatures for short periods of time during manufacturing or, in the case of vaporizer liquids, when being consumed. FIGS. 5-6 show the rates of degradation after short-term exposure to temperatures from 150-220° C. Table 1 includes the values of onset temperatures for thermal degradation and degradation rates for each compound. The phytocannabinoids degraded at rates from 0.2 wt % per minute to ˜10 wt % per minute at 150° C. and 220° C., respectively. Thermal degradation of both poly(cannabinoid)s remained less than 0.1 wt % over the same range, stabilizing the phytocannabinoid. Open vials containing 100 mg samples of CBD, CBD-diacetate, and poly(CBD-adipate) were heated at 175° C. in a laboratory convection oven for 30 minutes, after which 89.64 mg, 91.35, and 99.86 mg remained of each sample, respectfully. […]. Conversion of phytocannabinoids to poly(cannabinoid)s offers a preservative effect, eliminating the production of additional cannabinoids.

[4] = nitrogen atmosphere, heated to 700° C. at 10° C./minute
[5] = heated under the same conditions after purging thoroughly with argon

Row | Structure (SMILES) | Td, onset for thermal degradation according to non-isothermal TGA [1, 4] | extrapolated onset degradation temperature (TGA) ([1]; non-isothermal TGA, FIGS. 3-4) | Degradation rate from isothermal TGA ([2]; 150° C.) | Degradation rate from isothermal TGA ([2]; 160° C.) | Degradation rate from isothermal TGA ([2]; 180° C.) | Degradation rate from isothermal TGA ([2]; 220° C.) | remaining residue after heating [3] | NMR analysis of the sample residues after heating [3] | amount of by-product formation (LC/MS) [3] | Δ8-THC detected using 1H NMR [3, 5] | Δ9-THC detected using 1H NMR [3, 5] | NMR analysis of the sample residues after heating ([3]; listed as CBD-diacetate) | Td, onset for thermal degradation according to non-isothermal TGA [1] | extrapolated onset degradation temperature (TGA) [1]
1 | C=C(C)[C@@H]1CCC(C)=C[C@H]1c1c(O)cc(CCCCC)cc1O [CBD, cannabidiol] | 184 °C | 184 °C | 0.18 weight % loss per minute | 0.43 weight % loss per minute | 0.94 weight % loss per minute | 9.09 weight % loss per minute | 89.64 mg | New peaks formed; also recorded: formation of additional compounds | 10.68% | 0.21% | 0.16% | – | – | –
2 | C=C(C)[C@@H]1CCC(C)=C[C@H]1c1c(OC(C)=O)cc(CCCCC)cc1OC(C)=O [CBD-Diacetate, Cannabidiol-Diacetate] | 185 °C | 185 °C | 0.54 weight % loss per minute | 0.54 weight % loss per minute | 0.84 weight % loss per minute | 5.65 weight % loss per minute | 91.35 mg | New peaks formed | 25.32% | – | – | formation of additional compounds | – | –
3 | CCCCCc1cc(O)c(C/C=C(\C)CCC=C(C)C)c(O)c1 [CBG, cannabigerol] | – | – | – | – | – | – | – | – | – | – | – | – | 191 °C | 191 °C
4 | CCCCCc1cc(OC(C)=O)c(C/C=C(\C)CCC=C(C)C)c(OC(C)=O)c1 [CBG-Diacetate, Cannabigerol-Diacetate] | 223 °C | – | 0.08 weight % loss per minute | 0.11 weight % loss per minute | 0.49 weight % loss per minute | 1.92 weight % loss per minute | – | – | – | – | – | – | – | –
